Measurements from publication PMC9852173, “[^111In]In-CP04 as a novel cholecystokinin-2 receptor ligand with theranostic potential in patients with progressive or metastatic medullary thyroid cancer: final results of a GRAN-T-MTC Phase I clinical trial” (European Journal of Nuclear Medicine and Molecular Imaging, 2022).
Blank lines part the entries; values can stand above or below the compound they belong to.

How the values were obtained:
[1] = in vivo
Method: On the WBS planar imaging at 1, 4, 24, and 48 h (including standard activity) and quantitative SPECT/CT imaging at 4 and 24 h, the regions of interest (ROI) were drawn over the kidneys and over the lesions when visible. The counts in the ROIs were quantified to activity by cross-calibration with the activity determined in the corresponding volumes of interest (VOIs) drawn on the quantitative SPECT/CT image at 24 h. Time-activity curves were determined by fitting exponential curves through the uptake data. Time integrated activity coefficients (TIAC) were calculated for ^111In and ^177Lu by integration of the TIACs multiplied with their physical decaty functions. The absorbed dose per unit activity in each organ was determined by multiplication with the ^111In and ^177Lu S-values according to the MIRD formalism. […] The effect on the kidney absorbed dose after co-administration of the nephroprotective agent Gelofusine was evaluated. All dosimetry calculations were performed with the Hermes-OLINDA v2.1 hybrid 2D dosimetry software.

MTC [2] = details: meta-analysis; cited from earlier work
Description: It is well accepted that the molecular imaging modalities outperform conventional imaging (US, CT, and MRI in the present study) in the setting of recurrent disease, in particular PET/CT imaging with [^18F]F-DOPA [19–21].

MTC [3] = test: [18F]FDG PET/CT restaging prior to enrolment; type: in vivo, human; details: CEA 80 to 2087 ng/mL
Description: Sixteen patients with histologically proven and advanced MTC were enrolled in the study based on the specific inclusion and exclusion criteria. [^18F]FDG PET/CT, ceCT, or MRI imaging (initiated at Ct concentrations above 150 pg/mL or clinical suspicion of disease at a specific site) was positive in 12 patients; in four, short calcitonin doubling time (CtDT) with negative conventional imaging (CT of the neck/thorax, abdomen; [^18F]FDG PET/CT) was present.
It is well accepted that the molecular imaging modalities outperform conventional imaging (US, CT, and MRI in the present study) in the setting of recurrent disease, in particular PET/CT imaging with [^18F]F-DOPA [19–21]. […] With patient-based detection rate of over 80%, [^111In]In-CP04 slightly outperformed conventional and molecular imaging modalities (detection rate of 75%) in the present study. […] However, the patient population in our study was highly preselected and small, which likely affected the results; moreover, the reported detection rate in the mentioned meta-analysis was likely affected by the relatively low Ct concentrations (above 150 pg/mL in only 73% of patients). […]

[4] = parameters: species or system human; details: in vivo
Method: The primary objective of the trial was the evaluation of the safety of the administration of [^111In]In-CP04 at low mass amount of 10 μg CP04 and at high mass amount of 50 μg CP04 radiolabelled with 200±10% MBq of ^111In. Therefore, the definition of the type, frequency, severity, timing, and relation to the studied radiopharmaceutical administration of Adverse Events assessed by CTCAE v4.0 was used as primary endpoint to define the safety and tolerability of [^111In]In-CP04.
Detailed physical examinations with vital sign assessment, 12-lead ECG, and laboratory testing were performed to investigate the safety of intravenous administration of [^111In]In-CP04. The overall safety profile of the tested CCK-2/gastrin receptor ligand as characterized by timing, type, frequency, severity of adverse events (AE), and laboratory abnormalities was based on Common Terminology Criteria for Adverse Events (CTCAE) version 4.0. Since this was a Phase I clinical trial, the project was assumed as having a high-risk potential for the patient, and therefore, special care was taken with the monitoring of the study. In total, eight control visits were carried out over 4 months of the follow-up with physical examination, laboratory testing, and ECG. Additionally, Ct and proCt concentrations were measured after each [^111In]In-CP04 injection at predefined time points (0, 2, 5, 10, 20 min).
(table shift speed 12 cm/min).

[5] = in vivo; remark: listed apart in the source
Method: The duration of [^111In]In-CP04 administration with the low and high mass amount was 5 min and 30 min, respectively. During the injection of the IMP, a dynamic scan of the kidneys and stomach was performed for 30 min (anterior and posterior acquisition). The imaging protocol included a mandatory whole-body scan (WBS) at 1 h, 4 h, 24 h, and 48 h p.i. (table shift speed 12 cm/min). A quantitative SPECT/CT scan of the abdomen was performed at 24 h p.i. as well as an additional non-quantitative SPECT/CT scan of the area where pathological lesions were detected during WBS, if the scan duration was tolerated by the patient. Gelofusine (B. Braun, Melsungen, Germany) was administered as an infusion of 1 mL/kg body weight over 10 min followed by a 3-h infusion of 0.02 mL/kg/min after the injection of the IMPD. Physiological parameters (heart rate, blood pressure, oxygen saturation) were repeatedly measured during and after the [^111In]In-CP04 infusion as per study protocol.
During the [^111In]In-CP04 administration blood samples for dosimetry and pharmacokinetic purposes were taken at the set time intervals according to the study protocol: biodistribution and dosimetry data were acquired based on serial planar and SPECT/CT images, and blood and urine collection at regular time intervals. Urine samples were collected up to 24 h after the tracer injection to determine the bladder wall absorbed dose. On the WBS planar imaging at 1, 4, 24, and 48 h (including standard activity) and quantitative SPECT/CT imaging at 4 and 24 h, the regions of interest (ROI) were drawn over the kidneys and over the lesions when visible. The counts in the ROIs were quantified to activity by cross-calibration with the activity determined in the corresponding volumes of interest (VOIs) drawn on the quantitative SPECT/CT image at 24 h. Time-activity curves were determined by fitting exponential curves through the uptake data. Time integrated activity coefficients (TIAC) were calculated for ^111In and ^177Lu by integration of the TIACs multiplied with their physical decaty functions. The absorbed dose per unit activity in each organ was determined by multiplication with the ^111In and ^177Lu S-values according to the MIRD formalism. The blood time-activity curve was used to estimate the absorbed dose to the bone marrow. The activity concentration in the bone marrow was considered to be equal to the blood activity concentration. The activity and volumes of the urine samples were used to determine the urinary clearance rate, and with the dynamic bladder model, the TIAC in the bladder and the absorbed dose to the bladder wall were determined. The effect on the kidney absorbed dose after co-administration of the nephroprotective agent Gelofusine was evaluated. […]

projected 177Lu absorbed dose to the kidneys [1]: 0.12 Gy/GBq
SMILES: CSCC[C@H](NC(=O)[C@H](Cc1c[nH]c2ccccc12)NC(=O)CNC(=O)[C@H](Cc1ccc(O)cc1)NC(=O)[C@H](C)NC(=O)[C@@H](CCC(=O)O)NC(=O)[C@@H](CCC(=O)O)NC(=O)[C@@H](CCC(=O)O)NC(=O)[C@@H](CCC(=O)O)NC(=O)[C@@H](CCC(=O)O)NC(=O)[C@@H](CCC(=O)O)NC(=O)CN1CCN(CC(=O)O)CCN(CC(=O)O)CCN(CC(=O)O)CC1)C(=O)N[C@@H](CC(=O)O)C(=O)N[C@@H](Cc1ccccc1)C(N)=O [CP04, DOTA-(DGlu)6-Ala-Tyr-Gly-Trp-Met-Asp-Phe-NH2]

SMILES: N[C@@H](Cc1cc(O)c(O)cc1[18F])C(=O)O [[^18F]F-DOPA]
pooled patient-based detection rate (MTC [2]): 66%

SMILES: OC[C@H]1OC(O)[C@H]([18F])[C@@H](O)[C@@H]1O (stereo partly drawn) [[^18F]FDG]
PET/CT positivity in the present series (MTC [3]): only positive in three patients

laboratory test results during control visits [4]: did not change significantly
performance status (Karnofsky index) [4]: did not change
transient tachycardia, duration [4]: less than 5 minutes
kidney absorbed dose [5]: 0.044±0.019 mSv/MBq
radiation dose for 200 MBq [5]: about 7 mSv
retention of activity in intestines, stomach and kidneys [5]: < 1 % of IA
SMILES: CSCC[C@H](NC(=O)[C@H](Cc1c[nH]c2ccccc12)NC(=O)CNC(=O)[C@H](Cc1ccc(O)cc1)NC(=O)[C@H](C)NC(=O)[C@@H](CCC(=O)O)NC(=O)[C@@H](CCC(=O)O)NC(=O)[C@@H](CCC(=O)O)NC(=O)[C@@H](CCC(=O)O)NC(=O)[C@@H](CCC(=O)O)NC(=O)[C@@H](CCC(=O)O)NC(=O)CN1CCN(CC(=O)O)CCN(CC(=O)O)CCN(CC(=O)O)CC1)C(=O)N[C@@H](CC(=O)O)C(=O)N[C@@H](Cc1ccccc1)C(N)=O [[^111In]In-CP04, [^111In]In-DOTA-(DGlu)6-Ala-Tyr-Gly-Trp-Met-Asp-Phe-NH2, metal not drawn]
ECG recordings [4]: No significant changes
transient tachycardia, heart rate [4]: up to 128 beats/min
organs with highest dose [5]: highest dose to urinary bladder, followed by the kidneys and stomach wall
